Assay results published in PMC3828927, “Heterotropic Effect of β-lactam Antibiotics on Antioxidant Property of Haptoglobin (2-2)-Hemoglobin Complex” (Iranian Journal of Pharmaceutical Research : IJPR, 2011).

Target: T1, Hp (2-2)-Hb complex (Homo sapiens, UniProt P68871+P69905)
T1 construct: gene HBA1; with Haptoglobin
Test: guaiacol peroxidase assay, A470, clearance plot
Type: biochemical
Conditions: activator (heterotropic); binding site not shown; varied H2O2, 0.03 M guaiacol, 64 nM complex, 50 mM phosphate pH 7.5, 37 C

T1 sequence (P69905 2-142): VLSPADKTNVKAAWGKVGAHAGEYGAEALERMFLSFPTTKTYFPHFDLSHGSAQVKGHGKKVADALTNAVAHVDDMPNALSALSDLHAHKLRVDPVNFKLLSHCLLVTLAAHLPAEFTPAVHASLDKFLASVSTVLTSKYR
T1 sequence (P68871 2-147): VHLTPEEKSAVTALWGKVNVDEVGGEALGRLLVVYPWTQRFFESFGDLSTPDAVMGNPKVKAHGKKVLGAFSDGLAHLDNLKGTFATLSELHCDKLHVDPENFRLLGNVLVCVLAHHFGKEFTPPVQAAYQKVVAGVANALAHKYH
T1 sequence (P00738 19-160 partner): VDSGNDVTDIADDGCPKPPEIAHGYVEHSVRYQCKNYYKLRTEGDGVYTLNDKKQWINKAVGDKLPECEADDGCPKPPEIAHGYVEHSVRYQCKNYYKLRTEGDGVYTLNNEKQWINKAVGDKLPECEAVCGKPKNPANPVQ
T1 sequence (P00738 162-406 partner): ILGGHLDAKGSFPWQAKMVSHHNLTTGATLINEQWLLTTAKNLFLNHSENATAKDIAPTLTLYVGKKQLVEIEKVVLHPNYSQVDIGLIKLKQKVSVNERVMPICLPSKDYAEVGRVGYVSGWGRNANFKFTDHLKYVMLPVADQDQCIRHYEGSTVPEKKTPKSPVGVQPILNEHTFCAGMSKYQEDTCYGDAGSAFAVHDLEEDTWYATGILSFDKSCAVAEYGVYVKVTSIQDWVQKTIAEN

CC1(C)S[C@@H]2[C@H](NC(=O)[C@H](N)c3ccccc3)C(=O)N2[C@H]1C(=O)O [ampicillin]
% increase in peroxidase activity (CLmax) at 14 μg/mL: ~ 16%
